27 compounds from patent US20250382305A1 (PTC THERAPEUTICS, INC., priority 2022, published 2025) can be followed below.

The subject of one experiment is ATXN3 pre-mRNA. In words: RT-qPCR Assay to Quantify Exon 4 Skipping in ATXN3 pre-mRNA in Cells. The format is cell-based. As to conditions: percent exon 4 skipping in ATXN3 pre-mRNA, RT-qPCR of cell lysates; average IC50. In short, it runs like this: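 IC50 derives from a dose-response fit of percent exon 4 skipping, quantified by RT-qPCR on crude lysates. Compounds tested as 7-point 3.16-fold dilutions in duplicate; cells (10,000/well) were exposed for 24 h at 37 °C before lysis.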
(In general: Real-time PCR tracks product formation cycle by cycle.)

Experiment [1] deals with Total ATXN3 (tATXN3) protein. In words: Endogenous Total ATXN3 (tATXN3) Protein Assay (MSD immunoassay of cell lysates). The format is cell-based. Conditions: average IC50, total ATXN3 protein in cell lysate after 48 h with compound (Table 1). The essentials: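 By electrochemiluminescent MSD sandwich immunoassay (mouse monoclonal capture, rabbit monoclonal and SULFO-TAG anti-rabbit detection), endogenous ATXN3 was quantified in lysates of cells treated 48 h at 37° C at 10,000 cells/well. Treatment used a 7-point 3.16-fold duplicate dilution series, with average IC50 grouped into star categories.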

As usually defined, the IC50 is the midpoint of a concentration-inhibition curve.

As to `N[C@@H]1COCC[C@H]1c1sc2c(NCc3ccco3)cc(Cl)nc2c1Cl` [Compound 410, 2-((3S,4R)-3-aminotetrahydro-2H-pyran-4-yl)-3,5-dichloro-N-(furan-2-ylmethyl)thieno[3,2-b]pyridin-7-amine], the IC50 (in the experiment with ATXN3 pre-mRNA; in experiment [1]) was 30 to 300 nM throughout.

In the case of `N[C@H]1CC=CC[C@@H]1c1sc2c(NCc3ccco3)nc(Cl)nc2c1Br` [Compound 168, 6-((1S,6S)-6-aminocyclohex-3-en-1-yl)-7-bromo-2-chloro-N-(furan-2-ylmethyl)thieno[3,2-d]pyrimidin-4-amine], the IC50 (with ATXN3 pre-mRNA; in experiment [1]) was at most 30 nM each time.

`N[C@H]1CCC[C@@H]1c1sc2c(NCc3cccs3)cc(Cl)nc2c1-c1ccccc1` [Compound 131, 2-((1S,2S)-2-aminocyclopentyl)-5-chloro-3-phenyl-N-(thiophen-2-ylmethyl)thieno[3,2-b]pyridin-7-amine]: the IC50 (in the experiment on ATXN3 pre-mRNA; in experiment [1]) was over 1000 nM each time.

Consider `Cc1c([C@@]2(F)CCC[C@@H]2N)sc2c(NCc3ccco3)nc(Cl)nc12` [Compound 128, 6-((1R,2S)-2-amino-1-fluorocyclopentyl)-2-chloro-N-(furan-2-ylmethyl)-7-methylthieno[3,2-d]pyrimidin-4-amine], for which the IC50 (in the experiment with ATXN3 pre-mRNA; in experiment [1]) was over 1000 nM in each case.

With `Cc1c([C@@H]2CCC[C@H]2N)sc2c(NCc3ccco3)cc(Cl)nc12` [Compound 145, 2-((1R,2R)-2-aminocyclopentyl)-5-chloro-N-(furan-2-ylmethyl)-3-methylthieno[3,2-b]pyridin-7-amine], the figures for the IC50 (with ATXN3 pre-mRNA; in experiment [1]) were 30 to 300 nM and over 1000 nM, respectively.

Turning to `N[C@H]1CC=CC[C@@H]1c1sc2c(NCc3cccs3)cc(Cl)nc2c1C#CC[C@H](O)CO` [Compound 216, (S)-5-(2-((1S,6S)-6-aminocyclohex-3-en-1-yl)-5-chloro-7-((thiophen-2-ylmethyl)amino)thieno[3,2-b]pyridin-3-yl)pent-4-yne-1,2-diol], the IC50 (in the experiment with ATXN3 pre-mRNA; in experiment [1]) was at most 30 nM in each case.

Take `CC#CCNc1cc(Cl)nc2c(Br)c([C@H]3CC=CC[C@@H]3N)sc12` [Compound 230, 2-((1S,6S)-6-aminocyclohex-3-en-1-yl)-3-bromo-N-(but-2-yn-1-yl)-5-chlorothieno[3,2-b]pyridin-7-amine]: the IC50 (in the experiment with ATXN3 pre-mRNA; in experiment [1]) was at most 30 nM each time.

In the case of `Cc1c([C@H]2CC=CC[C@@H]2N)sc2c(NCc3ccncc3F)nc(Cl)nc12` [Compound 253, 6-((1S,6S)-6-aminocyclohex-3-en-1-yl)-2-chloro-N-((3-fluoropyridin-4-yl)methyl)-7-methylthieno[3,2-d]pyrimidin-4-amine], the IC50 with ATXN3 pre-mRNA is at most 30 nM; in experiment [1] it was 30 to 300 nM.

For the compound `CC#CCNc1cc(Cl)nc2c(Br)c([C@H]3OCCC[C@@H]3N)sc12` [Compound 343, 2-((2S,3S)-3-aminotetrahydro-2H-pyran-2-yl)-3-bromo-N-(but-2-yn-1-yl)-5-chlorothieno[3,2-b]pyridin-7-amine], the IC50 (with ATXN3 pre-mRNA; in experiment [1]) was 30 to 300 nM throughout.

For the compound `CN[C@H]1CC=CC[C@@H]1c1sc2c(NCc3cccs3)cc(Cl)nc2c1C#CCCO` [Compound 303, 4-(5-chloro-2-((1S,6S)-6-(methylamino)cyclohex-3-en-1-yl)-7-((thiophen-2-ylmethyl)amino)thieno[3,2-b]pyridin-3-yl)but-3-yn-1-ol], the IC50 (in the experiment with ATXN3 pre-mRNA; in experiment [1]) was 30 to 300 nM each time.

Regarding `N[C@@H]1CCCC[C@H]1c1sc2c(NCc3cccs3)cc(Cl)nc2c1-c1ccccc1` [Compound 138], the figures for the IC50 (in the experiment with ATXN3 pre-mRNA; in experiment [1]) were 300 to 1000 nM and 30 to 300 nM, respectively.

Take `Cc1c([C@@H]2CC=CC[C@H]2N)sc2c(NCc3ccco3)cc(Cl)nc12` [Compound 382, 2-((1R,6R)-6-aminocyclohex-3-en-1-yl)-5-chloro-N-(furan-2-ylmethyl)-3-methylthieno[3,2-b]pyridin-7-amine]: the IC50 (with ATXN3 pre-mRNA; in experiment [1]) was 30 to 300 nM each time.

Regarding “2-((1R,2R)-2-amino-4,4-dimethylcyclohexyl)-3-bromo-5-chloro-N-(thiophen-2-ylmethyl)thieno[3,2-b]pyridin-7-amine and 2-((1S,2S)-2-amino-4,4-dimethylcyclohexyl)-3-bromo-5-chloro-N-(thiophen-2-ylmethyl)thieno[3,2-b]pyridin-7-amine [Compound 152]”, the IC50 (with ATXN3 pre-mRNA; in experiment [1]) was 30 to 300 nM each time.

On to `N[C@@H]1CCCCC1c1sc2c(NCc3cccs3)cc(Cl)nc2c1C(F)F.N[C@H]1CCCCC1c1sc2c(NCc3cccs3)cc(Cl)nc2c1C(F)F` (mixture of isomers) [Compound 279, 2-((2R)-2-aminocyclohexyl)-5-chloro-3-(difluoromethyl)-N-(thiophen-2-ylmethyl)thieno[3,2-b]pyridin-7-amine and 2-((2S)-2-aminocyclohexyl)-5-chloro-3-(difluoromethyl)-N-(thiophen-2-ylmethyl)thieno[3,2-b]pyridin-7-amine], for which the IC50 (with ATXN3 pre-mRNA; in experiment [1]) was 30 to 300 nM throughout.

`Cc1c([C@H]2CCCC[C@@H]2N)sc2c(NCc3cccs3)cc(Cl)nc12` [Compound 71, 2-((1S,2S)-2-aminocyclohexyl)-5-chloro-3-methyl-N-(thiophen-2-ylmethyl)thieno[3,2-b]pyridin-7-amine]: the IC50 (with ATXN3 pre-mRNA; in experiment [1]) was at most 30 nM each time.

Regarding `N[C@H]1CC=CC[C@@H]1c1sc2c(NCc3ccccc3)cc(Cl)nc2c1Cl` [Compound 207, 2-((1S,6S)-6-aminocyclohex-3-en-1-yl)-N-benzyl-3,5-dichlorothieno[3,2-b]pyridin-7-amine], the IC50 (in the experiment on ATXN3 pre-mRNA; in experiment [1]) was at most 30 nM in each case.

Turning to `Cc1c([C@H]2CC=C(C(=O)N(C)C)C[C@@H]2N)sc2c(NCc3cccs3)cc(Cl)nc12` [Compound 312, (4S,5S)-5-amino-4-(5-chloro-3-methyl-7-((thiophen-2-ylmethyl)amino)thieno[3,2-b]pyridin-2-yl)-N,N-dimethylcyclohex-1-ene-1-carboxamide], the IC50 (in the experiment on ATXN3 pre-mRNA; in experiment [1]) was 30 to 300 nM in each case.

Consider `N[C@@H]1CCCC(F)(F)[C@H]1c1sc2c(NCc3cccs3)cc(Cl)nc2c1Cl` [Compound 409, 2-((1S,6R)-6-amino-2,2-difluorocyclohexyl)-3,5-dichloro-N-(thiophen-2-ylmethyl)thieno[3,2-b]pyridin-7-amine], for which the IC50 (in the experiment with ATXN3 pre-mRNA; in experiment [1]) was 30 to 300 nM throughout.

“6-((1R,6R)-6-aminocyclohex-3-en-1-yl-2,2,3,4,5,5-d6)-7-bromo-2-chloro-N-(thiophen-2-ylmethyl)thieno[3,2-d]pyrimidin-4-amine [Compound 372]”: the IC50 (in the experiment with ATXN3 pre-mRNA; in experiment [1]) was 30 to 300 nM throughout.

Turning to `Cc1c([C@@H]2OCCC[C@H]2N)sc2c(NCc3ccco3)cc(Cl)nc12` [Compound 134, ((2R,3R)-3-aminotetrahydro-2H-pyran-2-yl)-5-chloro-N-(furan-2-ylmethyl)-3-methylthieno[3,2-b]pyridin-7-amine], the IC50 (in the experiment with ATXN3 pre-mRNA; in experiment [1]) was over 1000 nM throughout.

Take `N[C@H]1CCCC[C@@H]1c1sc2c(NCc3cccs3)cc(Cl)nc2c1Cl` (single isomer, unassigned) [Compound 34, 2-((1S,2S)-2-aminocyclohexyl)-3,5-dichloro-N-(thiophen-2-ylmethyl)thieno[3,2-b]pyridin-7-amine or 2-((1R,2R)-2-aminocyclohexyl)-3,5-dichloro-N-(thiophen-2-ylmethyl)thieno[3,2-b]pyridine-7-amine]: the IC50 (with ATXN3 pre-mRNA; in experiment [1]) was at most 30 nM throughout.

Take “2-((2R,3R,5R)-3-amino-5-methyltetrahydro-2H-pyran-2-yl)-3-bromo-5-chloro-N-(thiophen-2-ylmethyl)thieno[3,2-b]pyridin-7-amine and 2-((2S,3S,5S)-3-amino-5-methyltetrahydro-2H-pyran-2-yl)-3-bromo-5-chloro-N-(thiophen-2-ylmethyl)thieno[3,2-b]pyridin-7-amine [Compound 284]”: the IC50 (with ATXN3 pre-mRNA; in experiment [1]) was 30 to 300 nM in each case.

In the case of `N[C@H]1CCCCCC[C@@H]1c1sc2c(NCc3cccs3)cc(Cl)nc2c1Br` [Compound 99, 2-((1S,2S)-2-aminocyclooctyl)-3-bromo-5-chloro-N-(thiophen-2-ylmethyl)thieno[3,2-b]pyridin-7-amine], the IC50 (with ATXN3 pre-mRNA; in experiment [1]) was 30 to 300 nM each time.

As for `N[C@H]1CCCO[C@@H]1c1c(I)c2nc(Cl)nc(NCc3ccco3)c2n1C(F)F` [Compound 225, 6-((2S,3S)-3-aminotetrahydro-2H-pyran-2-yl)-2-chloro-5-(difluoromethyl)-N-(furan-2-ylmethyl)-7-iodo-5H-pyrrolo[3,2-d]pyrimidin-4-amine], the IC50 (in the experiment on ATXN3 pre-mRNA; in experiment [1]) was at most 30 nM in each case.

Turning to `N[C@H]1CC=CC[C@@H]1c1sc2c(NCc3ccco3)nc(Cl)nc2c1Cl` [Compound 170, 6-((1S,6S)-6-aminocyclohex-3-en-1-yl)-2,7-dichloro-N-(furan-2-ylmethyl)thieno[3,2-d]pyrimidin-4-amine], the figures for the IC50 (with ATXN3 pre-mRNA; in experiment [1]) were under 30 nM and at most 30 nM, respectively.

Take “6-((1R,2R)-2-aminocyclohexyl)-N-benzyl-2-chloro-7-methylthieno[3,2-d]pyrimidin-4-amine or 6-((1S,2S)-2-aminocyclohexyl)-N-benzyl-2-chloro-7-methylthieno[3,2-d]pyrimidin-4-amine [Compound 43]”: the IC50 (in the experiment on ATXN3 pre-mRNA; in experiment [1]) was over 1000 nM in each case.

Consider `Cc1c([C@H]2CCCC[C@H]2N)sc2c(NCc3cccs3)cc(Cl)nc12` [Compound 51, 2-((1S,2R)-2-aminocyclohexyl)-5-chloro-3-methyl-N-(thiophen-2-ylmethyl)thieno[3,2-b]pyridin-7-amine], for which the IC50 (with ATXN3 pre-mRNA; in experiment [1]) was over 1000 nM throughout.
